Laboratory results from US20120225062A1 (priority 2011, published 2012).

How the values were obtained:
[1] = test system: KMS11 (human myeloma cell line); assay: Cell Proliferation Assay (CellTiter-Glo, 3 days); type: cell-based; details: KMS-11, 72 h, KMS11-luc cells
How it was run: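 EC50 from CellTiter-Glo luminescence after 3-day, 37° C compound treatment of KMS11 cells seeded at 2000 per well in IMDM plus 10% FBS.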

Pim 1 = Pim 1 (Homo sapiens, UniProt P11309); assay: Pim 1 AlphaScreen assay (high ATP)
Pim 1, sequence (P11309 whole entry): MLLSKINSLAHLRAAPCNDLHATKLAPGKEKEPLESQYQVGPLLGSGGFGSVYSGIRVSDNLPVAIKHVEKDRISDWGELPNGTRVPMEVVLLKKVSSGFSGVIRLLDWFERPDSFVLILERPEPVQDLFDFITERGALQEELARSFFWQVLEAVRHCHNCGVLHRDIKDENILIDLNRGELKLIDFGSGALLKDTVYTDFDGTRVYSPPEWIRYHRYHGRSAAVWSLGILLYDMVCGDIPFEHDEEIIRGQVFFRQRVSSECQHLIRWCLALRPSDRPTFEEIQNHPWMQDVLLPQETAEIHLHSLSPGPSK
Description: (§1) The activity of Pim 1, Pim 2, & Pim 3 is measured using a homogeneous bead based system quantifying the amount of phosphorylated peptide substrate resulting from kinase-catalyzed phosphoryl transfer to a peptide substrate. Compounds to be tested are dissolved in 100% DMSO and directly distributed to a white 384-well plate at 0.25 μl per well. […] This is followed by the addition of 5 μl/well of Pim 1, Pim 2 or Pim 3 kinase in assay buffer (concentrations described below). Final assay concentrations (described below) are in 2.5% DMSO. The reactions are performed for ˜2 hours, then stopped by the addition of 10 μl of 0.75 μg/ml anti-phospho Ser/Thr antibody (Cell Signaling), 10 μg/ml Protein A AlphaScreen beads (Perkin Elmer), and 10 μg/ml streptavidin coated AlphaScreen beads in stop/detection buffer (50 mM EDTA, 95 mM Tris, pH=7.5, 0.01% Tween-20). The stopped reactions are incubated overnight in the dark. The phosphorylated peptide is detected via an oxygen anion initiated chemiluminescence/fluorescence cascade using the Envision plate reader (Perkin Elmer).

Pim 2 = Pim 2 (Homo sapiens, UniProt Q9P1W9); assay: Pim 2 AlphaScreen assay (high ATP)
Pim 2, sequence (Q9P1W9 whole entry): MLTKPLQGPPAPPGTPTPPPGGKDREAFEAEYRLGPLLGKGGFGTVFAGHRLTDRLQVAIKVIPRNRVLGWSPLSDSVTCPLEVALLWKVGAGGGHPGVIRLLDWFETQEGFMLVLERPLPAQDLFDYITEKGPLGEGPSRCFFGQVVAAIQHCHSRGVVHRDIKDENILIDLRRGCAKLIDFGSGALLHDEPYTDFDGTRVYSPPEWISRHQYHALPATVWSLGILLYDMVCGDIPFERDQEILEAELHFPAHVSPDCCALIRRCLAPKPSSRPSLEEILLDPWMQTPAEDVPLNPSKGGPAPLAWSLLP
Description: as §1

Pim 3 = Pim 3 (Homo sapiens, UniProt Q86V86); assay: Pim 3 AlphaScreen assay (high ATP)

SMILES | EC50 [1] [nM] | IC50 (Pim 1) [nM] | IC50 (Pim 2) [nM] | IC50 (Pim 3) [nM]
C[C@@H]1C[C@H](N)C[C@H](c2ccncc2NC(=O)c2ccc(F)c(-c3c(F)cc(OC[C@@H](O)CO)cc3F)n2)C1 [Example 3, N-(4-((1R,3S,5S)-3-amino-5-methylcyclohexyl)pyridin-3-yl)-6-(4-((S)-2,3-dihydroxypropoxy)-2,6-difluorophenyl)-5-fluoropicolinamide] | 53 | 0.03 | 1.89 | 0.55
C[C@@H]1C[C@H](N)C[C@H](c2ccncc2NC(=O)c2ccc(F)c(-c3c(F)cc(OC4CCOCC4)cc3F)n2)C1 [Example 63, N-(4-((1R,3S,5S)-3-amino-5-methylcyclohexyl)pyridin-3-yl)-6-(2,6-difluoro-4-((tetrahydro-2H-pyran-4-yl)oxy)phenyl)-5-fluoropicolinamide] | 76 | 0.01 | 2.04 | 0.32
C[C@H]1C[C@@H](c2ccncc2NC(=O)c2ccc(F)c(-c3c(F)cc(OCCO)cc3F)n2)C[C@@H](N)[C@@H]1O [Example 32, N-(4-((1R,3R,4R,5S)-3-amino-4-hydroxy-5-methylcyclohexyl)pyridin-3-yl)-6-(2,6-difluoro-4-(2-hydroxyethoxy)phenyl)-5-fluoropicolinamide] | 52 | 0.06 | 4.76 | 1.9
CC(C)[C@@H]1C[C@H](N)C[C@H](c2ccncc2NC(=O)c2ccc(F)c(-c3c(F)cc(C4CCOCC4)cc3F)n2)C1 [Example 139, N-(4-((1R,3S,5S)-3-amino-5-isopropylcyclohexyl)pyridin-3-yl)-6-(2,6-difluoro-4-(tetrahydro-2H-pyran-4-yl)phenyl)-5-fluoropicolinamide] | 153 | 0.01 | 0.63 | 0.36
COc1ccc(F)c(-c2nc(C(=O)Nc3cnccc3[C@@H]3C[C@H](C)C[C@H](N)C3)ccc2F)c1F [Example 212, N-(4-((1R,3S,5S)-3-amino-5-methylcyclohexyl)pyridin-3-yl)-6-(2,6-difluoro-3-methoxyphenyl)-5-fluoropicolinamide] | 50 | 0.03 | 3.77 | 1.03
C[C@@H]1C[C@H](N)C[C@H](c2ccncc2NC(=O)c2ccc(F)c(-c3c(F)cc([C@@H]4CCOC4)cc3F)n2)C1 [Example 206, N-(4-((1R,3S,5S)-3-amino-5-methylcyclohexyl)pyridin-3-yl)-6-(2,6-difluoro-4-((S)-tetrahydrofuran-3-yl)phenyl)-5-fluoropicolinamide] | 59 | 0.01 | 1.66 | 0.8
C[C@@H]1C[C@H](N)C[C@H](c2ccncc2NC(=O)c2ccc(F)c(-c3c(F)ccc(OC[C@@H](O)CO)c3F)n2)C1 [Example 10, N-(4-((1R,3S,5S)-3-amino-5-methylcyclohexyl)pyridin-3-yl)-6-(3-((S)-2,3-dihydroxypropoxy)-2,6-difluorophenyl)-5-fluoropicolinamide] | 126 | 0.03 | 4.96 | 0.95
C[C@@H]1C[C@H](N)C[C@H](c2ccncc2NC(=O)c2cccc(-c3c(F)cc(C4CCOCC4)cc3F)n2)C1 [Example 192, N-(4-((1R,3S,5S)-3-amino-5-methylcyclohexyl)pyridin-3-yl)-6-(2,6-difluoro-4-(tetrahydro-2H-pyran-4-yl)phenyl)picolinamide] | 114 | 0.02 | 3.49 | 1.06
C[C@@H]1C[C@H](N)C[C@H](c2ccncc2NC(=O)c2ccc(F)c(-c3c(F)cc(OCC(=O)N(C)C)cc3F)n2)C1 [Example 143, N-(4-((1R,3S,5S)-3-amino-5-methylcyclohexyl)pyridin-3-yl)-6-(4-(2-(dimethylamino)-2-oxoethoxy)-2,6-difluorophenyl)-5-fluoropicolinamide] | 197 | 0.05 | 9.42 | 0.77
CCOC(C)(C)c1cc(F)c(-c2nc(C(=O)Nc3cnccc3N3C[C@@H](N)[C@H](O)[C@@H](C)C3)ccc2F)c(F)c1 [Example 201, N-(4-((3R,4R,5S)-3-amino-4-hydroxy-5-methylpiperidin-1-yl)pyridin-3-yl)-6-(4-(2-ethoxypropan-2-yl)-2,6-difluorophenyl)-5-fluoropicolinamide] | 239 | 0.01 | 0.98 | 0.55
CC(C)OCc1cc(F)c(-c2nc(C(=O)Nc3cnccc3[C@@H]3C[C@H](C)C[C@H](N)C3)ccc2F)c(F)c1 [Example 147, N-(4-((1R,3S,5S)-3-amino-5-methylcyclohexyl)pyridin-3-yl)-6-(2,6-difluoro-4-(isopropoxymethyl)phenyl)-5-fluoropicolinamide] | 146 | 0.02 | 2.77 | 1.03
C[C@@H]1C[C@H](N)C[C@H](c2ccncc2NC(=O)c2ccc(F)c(-c3c(F)cc4c(c3F)OCC4)n2)C1 [Example 179, N-(4-((1R,3S,5S)-3-amino-5-methylcyclohexyl)pyridin-3-yl)-6-(5,7-difluoro-2,3-dihydrobenzofuran-6-yl)-5-fluoropicolinamide] | 77 | 0.01 | 0.51 | 0.3
C[C@@H]1C[C@H](N)C[C@H](c2ccncc2NC(=O)c2ccc(F)c(-c3c(F)cc(C(C)(C)C#N)cc3F)n2)C1 [Example 164, N-(4-((1R,3S,5S)-3-amino-5-methylcyclohexyl)pyridin-3-yl)-6-(4-(2-cyanopropan-2-yl)-2,6-difluorophenyl)-5-fluoropicolinamide] | 88 | 0.02 | 2.13 | 2.04

The next compounds have a lower EC50 [1] than those just listed; values first:

EC50 [1] [nM] | IC50 (Pim 1) [nM] | IC50 (Pim 2) [nM] | IC50 (Pim 3) [nM] | SMILES
46 | 0.04 | 2.6 | 1.53 | C[C@@H]1C[C@H](N)C[C@H](c2ccncc2NC(=O)c2ccc(F)c(-c3c(F)cc([C@H](O)CO)cc3F)n2)C1 [Example 231, N-(4-((1R,3S,5S)-3-amino-5-methylcyclohexyl)pyridin-3-yl)-6-(4-((S)-1,2-dihydroxyethyl)-2,6-difluorophenyl)-5-fluoropicolinamide]
42 | 0.05 | 1.88 | 2.21 | C[C@H]1CN(c2ccncc2NC(=O)c2ccc(F)c(-c3c(F)cc([S@@+](C)[O-])cc3F)n2)C[C@@H](N)[C@@H]1O [Example 26, N-(4-((3R,4R,5S)-3-amino-4-hydroxy-5-methylpiperidin-1-yl)pyridin-3-yl)-6-(2,6-difluoro-4-((R)-methylsulfinyl)phenyl)-5-fluoropicolinamide]
37 | 0.01 | 1.96 | 0.51 | C[C@@H]1C[C@H](N)C[C@H](c2ccncc2NC(=O)c2ccc(F)c(-c3c(F)cc(OCC4CC4)cc3F)n2)C1 [Example 64, N-(4-((1R,3S,5S)-3-amino-5-methylcyclohexyl)pyridin-3-yl)-6-(4-(cyclopropylmethoxy)-2,6-difluorophenyl)-5-fluoropicolinamide]
23 | 0.03 | 2.01 | 0.65 | Cc1cc(F)c(-c2nc(C(=O)Nc3cnccc3[C@H]3C[C@@H](N)[C@H](O)[C@@H](C)C3)c(N)cc2F)c(F)c1 [Example 219, 3-amino-N-(4-((1R,3R,4R,5S)-3-amino-4-hydroxy-5-methylcyclohexyl)pyridin-3-yl)-6-(2,6-difluoro-4-methylphenyl)-5-fluoropicolinamide]
21 | 0.02 | 0.68 | 0.37 | C[C@H]1CN(c2ccncc2NC(=O)c2ccc(F)c(-c3c(F)cc(C4(O)CC4)cc3F)n2)C[C@@H](N)[C@@H]1O [Example 103, N-(4-((3R,4R,5S)-3-amino-4-hydroxy-5-methylpiperidin-1-yl)pyridin-3-yl)-6-(2,6-difluoro-4-(1-hydroxycyclopropyl)phenyl)-5-fluoropicolinamide]
20 | 0.04 | 2.2 | 1.03 | C[C@H]1CN(c2ccncc2NC(=O)c2ccc(F)c(-c3c(F)cc([C@H](O)CO)cc3F)n2)C[C@@H](N)[C@@H]1O [Example 233, N-(4-((3R,4R,5S)-3-amino-4-hydroxy-5-methylpiperidin-1-yl)pyridin-3-yl)-6-(4-((S)-1,2-dihydroxyethyl)-2,6-difluorophenyl)-5-fluoropicolinamide]
20 | 0.02 | 0.87 | 0.25 | CCc1cc(F)c(-c2nc(C(=O)Nc3cnccc3N3C[C@@H](N)[C@H](O)[C@@H](C)C3)ccc2F)c(F)c1 [Example 235, N-(4-((3R,4R,5S)-3-amino-4-hydroxy-5-methylpiperidin-1-yl)pyridin-3-yl)-6-(4-ethyl-2,6-difluorophenyl)-5-fluoropicolinamide]
19 | 0.01 | 0.72 | 0.71 | COC1(c2cc(F)c(-c3nc(C(=O)Nc4cnccc4[C@@H]4C[C@H](C)C[C@H](N)C4)c(N)cc3F)c(F)c2)COC1 [Example 90, 3-amino-N-(4-((1R,3S,5S)-3-amino-5-methylcyclohexyl)pyridin-3-yl)-6-(2,6-difluoro-4-(3-methoxyoxetan-3-yl)phenyl)-5-fluoropicolinamide]
13 | 0.03 | 1.92 | 0.35 | COCCOc1ccc(F)c(-c2nc(C(=O)Nc3cnccc3N3C[C@@H](N)[C@H](O)[C@@H](C)C3)ccc2F)c1F [Example 17, N-(4-((3R,4R,5S)-3-amino-4-hydroxy-5-methylpiperidin-1-yl)pyridin-3-yl)-6-(2,6-difluoro-3-(2-methoxyethoxy)phenyl)-5-fluoropicolinamide]
